Measured values published in patent US8889671B2, “Compounds and methods for treating bacterial infections” (AstraZeneca AB, priority 2013, dated 2014).
≈ marks a conversion by molar mass, not a printed value. Like-named read-outs stand apart in the source and are kept apart here.

Experiments:
Staphylococcus aureus = experiment: Susceptibility testing (MIC) Assay 1, broth microdilution; assay type: cell-based; conditions: Staphylococcus aureus
Streptococcus pneumoniae = experiment: as above; assay type: cell-based
Streptococcus pyogenes = experiment: as above; assay type: cell-based; conditions: Streptococcus pyogenes, Streptococcus pyrgenes, in vivo strain; read-out: Spy MIC
[1] = Plasma pharmacokinetics in S. aureus infected mice; assay type: in vivo, mouse; conditions: intraperitoneal, mice with ABT
Procedure: Groups of satellite mice infected with S. aureus were used for determining plasma concentrations. Dosing started 2 hours after infection and whole blood samples were taken at time points 0.5, 1, 2, 4, 6, 8, 12 and 24 h by submandibular bleed or by cardiac puncture following carbon dioxide asphyxiation and cervical dislocation. Whole blood was sampled into microcontainer tubes containing ethylenediamine tetraacetic acid (EDTA) (Beckton Dickenson). Three mice per time point were used. Plasma was separated by centrifugation for five minutes at 13200 rpm and stored at −20° C. until bioanalysis.
Biological samples containing Example 5 were extracted using protein precipitation. To one volume of sample, 5 volumes of acetonitrile containing the internal standard (Glyburide) were added. […] A Sciex API 4000, controlled by Analyst v1.4.2, was used for the acquisition of the data and the quantification of Example 5.
The plasma profile for each dose group was obtained by calculating the average plasma concentration of compound in each of the three animals per time point. The area under the plasma concentration time curve from zero to infinity (AUC); maximum plasma drug concentration (Cmax); time to reach maximum concentration (tmax); and plasma half-life (t1/2) for each dose group was determined by non-compartmental analysis (WinNonLin 5.2, Pharsight). […]

Candida albicans = experiment: In vitro antibacterial activity of Example 5 (MIC); assay type: cell-based; conditions: ATCC90028; Candida albicans (ATCC 90028 CLSI QC Strain)
Klebsiella oxytoca = experiment: In vitro antibacterial activity of Example 5 (MIC); assay type: cell-based
Moraxella catarrhalis = experiment: In vitro antibacterial activity of Example 5 (MIC); assay type: cell-based; conditions: ATCC43617; Moraxella catarrhalis (ATCC 43617)
Serratia marcescens = experiment: In vitro antibacterial activity of Example 5 (MIC); assay type: cell-based
[2] = system: Staphylococcus epidermidis; experiment: In vitro antibacterial activity of Example 5 (MIC); assay type: cell-based
[3] = system: Staphylococcus haemolyticus; experiment: In vitro antibacterial activity of Example 5 (MIC); assay type: cell-based
[4] = system: Staphylococcus saprophyticus; experiment: In vitro antibacterial activity of Example 5 (MIC); assay type: cell-based
[5] = system: Streptococcus constellatus; experiment: In vitro antibacterial activity of Example 5 (MIC); assay type: cell-based
[6] = system: Stenotrophomonas maltophilia; experiment: In vitro antibacterial activity of Example 5 (MIC); assay type: cell-based
[7] = system: Bacteroides thetaiotaomicron; experiment: In vitro antibacterial activity of Example 5 against anaerobes (MIC, agar dilution); assay type: cell-based
[8] = system: Prevotella melaninogenica; experiment: as above; assay type: cell-based
Legionella pneumophila = experiment: microbe, parasite or virus in culture; assay type: cell-based
Neisseria gonorrhoeae = experiment: MIC against 100 N. gonorrhoeae isolates, CLSI reference agar dilution; assay type: cell-based
[9] = system: Streptococcus pyogenes ATCC12384; experiment: S. pyogenes neutropenic mouse thigh infection model, PK/PD
[10] = azithromycin-intermediate isolates
[11] = S. pyogenes ATCC12384, neutropenic mouse thigh

`C[C@@H]1CN2c3c(cc4c(N5C(=O)OC[C@@H]5C)noc4c3F)CC3(C(=O)NC(=O)NC3=O)[C@H]2[C@H](C)O1` [Example 5, (2R,4S,4aS)-11-Fluoro-2,4-dimethyl-8-[(4S)-4-methyl-2-oxo-1,3-oxazolidin-3-yl]-1,2,4,4a-tetrahydro-2′H,6H-spiro[1,4-oxazino[4,3-a][1,2]oxazolo[4,5-g]quinoline-5,5′-pyrimidine]-2′,4′,6′(1′H,3′H)-trione] showed an MIC (Staphylococcus aureus; Staphylococcus aureus in vivo strain, MSQS, read-out: Sau(d) MIC) of 0.36 µM (≈ 0.175 µg/mL), an MIC (Staphylococcus aureus; in vivo strain, MRQR, read-out: Sau(e) MIC) of 0.78 µM (≈ 0.38 µg/mL) and an MIC (Staphylococcus aureus; serum, read-out: Sau(f) MIC) of 0.71 µM (≈ 0.346 µg/mL). The MIC (Streptococcus pneumoniae; in vivo strain (footnote b), read-out: Spn(b) MIC) was 0.39 µM (≈ 0.19 µg/mL), the MIC (Streptococcus pneumoniae; in vivo strain (footnote c), read-out: Spn(c) MIC) was 0.46 µM (≈ 0.224 µg/mL) and the MIC (Streptococcus pyogenes) was 0.36 µM (≈ 0.175 µg/mL). The “pharmacokinetics over the dosing range” value [1] was “nonlinear pharmacokinetics”, the “time of maximum concentration post-administration” value [1] was 0.5 h and the MIC (Candida albicans) was over 64 µg/mL. For the same molecule, the MIC (Klebsiella oxytoca) was 32 µg/mL (≈ 65.6 µM), the MIC (Moraxella catarrhalis) was 0.125 µg/mL (≈ 0.256 µM) and the MIC (Serratia marcescens) was over 64 µg/mL. It also gave an MIC ([2]; Staphylococcus epidermidis (MRSE)) of 0.25 µg/mL (≈ 0.513 µM), an MIC90 ([2]; Staphylococcus epidermidis, S. epidermidis, n=37) of 0.25 µg/mL (≈ 0.513 µM) and an MIC [3] of 0.25 µg/mL (≈ 0.513 µM). The MIC90 ([3]; S. haemolyticus, n=21) was 0.25 µg/mL (≈ 0.513 µM), the MIC [4] was 0.5 µg/mL (≈ 1.03 µM) and the MIC90 ([4]; S. saprophyticus, n=16) was 0.5 µg/mL (≈ 1.03 µM). It also gave an MIC [5] of 0.03 µg/mL (≈ 0.0615 µM), an MIC [6] of over 64 µg/mL and an MIC ([7]; ATCC29741, Bacteroides thetaiotaomicron (ATCC 29741, CLSI QC Strain)) of 8 µg/mL (≈ 16.4 µM). The MIC ([7]; Bacteroides thetaiotaomicron) was 8 µg/mL (≈ 16.4 µM), the MIC [8] was 0.25 µg/mL (≈ 0.513 µM) and the MIC90 (Legionella pneumophila) was 0.06 µg/mL (≈ 0.123 µM). For the same molecule, the MIC range (Legionella pneumophila; n=11) was 0.008 to 0.06 µg/mL, the MIC (Neisseria gonorrhoeae; Neisseria gonorrhoeae, ATCC49226, QC strain N. gonorrhoeae ATCC 49226, read-out: MIC) was 0.06 µg/mL (≈ 0.123 µM) and the MIC (Neisseria gonorrhoeae; Neisseria gonorrhoeae, all 100 N. gonorrhoeae isolates tested, read-out: MIC values) was at most 0.25 µg/mL. It also gave an MIC90 (Neisseria gonorrhoeae; Neisseria gonorrhoeae, azithromycin-intermediate isolates, read-out: MIC90) of 0.12 µg/mL (≈ 0.246 µM), an MIC (Neisseria gonorrhoeae; Neisseria gonorrhoeae, azithromycin-susceptible and -intermediate isolates, read-out: modal MIC) of 0.06 µg/mL (≈ 0.123 µM) and an MIC90 (Neisseria gonorrhoeae; Neisseria gonorrhoeae, azithromycin-susceptible isolates, read-out: MIC90) of 0.06 µg/mL (≈ 0.123 µM). For the same molecule, the MIC90 (Neisseria gonorrhoeae; Neisseria gonorrhoeae, ciprofloxacin-intermediate and -resistant strains, read-out: MIC90) was 0.12 µg/mL (≈ 0.246 µM), the MIC (Neisseria gonorrhoeae; Neisseria gonorrhoeae, ciprofloxacin-intermediate and -resistant strains, read-out: modal MIC) was 0.06 µg/mL (≈ 0.123 µM) and the MIC90 (Neisseria gonorrhoeae; Neisseria gonorrhoeae, non-susceptible phenotypes, read-out: MIC90) was 0.06 to 0.12 µg/mL (≈ 0.123 to 0.246 µM). It also gave an MIC (Neisseria gonorrhoeae; Neisseria gonorrhoeae, penicillin-intermediate and -resistant strains, read-out: modal MIC) of 0.06 µg/mL (≈ 0.123 µM), an MIC90 (Neisseria gonorrhoeae; Neisseria gonorrhoeae, penicillin-intermediate strains, read-out: MIC90) of 0.06 µg/mL (≈ 0.123 µM) and an MIC90 (Neisseria gonorrhoeae; Neisseria gonorrhoeae, penicillin-resistant strains, read-out: MIC90) of 0.12 µg/mL (≈ 0.246 µM). For the same molecule, the MIC90 (Neisseria gonorrhoeae; Neisseria gonorrhoeae, susceptible phenotypes (ciprofloxacin-, tetracycline- and azithromycin-susceptible), read-out: MIC90) was 0.06 µg/mL (≈ 0.123 µM), the MIC (Neisseria gonorrhoeae; Neisseria gonorrhoeae, tetracycline-intermediate and -resistant strains, read-out: modal MIC) was 0.06 µg/mL (≈ 0.123 µM) and the MIC90 (Neisseria gonorrhoeae; Neisseria gonorrhoeae, tetracycline-intermediate strains, read-out: MIC90) was 0.06 µg/mL (≈ 0.123 µM). The MIC90 (Neisseria gonorrhoeae; Neisseria gonorrhoeae, tetracycline-resistant strains, read-out: MIC90) was 0.12 µg/mL (≈ 0.246 µM), the MIC (Neisseria gonorrhoeae; Neisseria gonorrhoeae, various subsets of isolates including those non-susceptible to comparator agents, read-out: modal MIC) was 0.06 µg/mL (≈ 0.123 µM) and the MIC50 (Neisseria gonorrhoeae; Neisseria gonorrhoeae, all 100 N. gonorrhoeae isolates, read-out: MIC50) was 0.06 µg/mL (≈ 0.123 µM). For the same molecule, the MIC90 (Neisseria gonorrhoeae; Neisseria gonorrhoeae, all 100 N. gonorrhoeae isolates, read-out: MIC90) was 0.125 µg/mL (≈ 0.256 µM), the MIC (Neisseria gonorrhoeae; QC strain N. gonorrhoeae ATCC 49226) was 0.12 µg/mL (≈ 0.246 µM) and the MIC90 (Neisseria gonorrhoeae; all 100 N. gonorrhoeae isolates) was 0.12 µg/mL (≈ 0.246 µM). For the same molecule, the MIC50 (Neisseria gonorrhoeae; [10]) was 0.06 µg/mL (≈ 0.123 µM), the “isolates at 0.06 μg/mL” value (Neisseria gonorrhoeae; [10]) was 66.7% and the MIC50 (Neisseria gonorrhoeae; azithromycin-susceptible isolates) was 0.06 µg/mL (≈ 0.123 µM). It also gave an MIC50 (Neisseria gonorrhoeae; ciprofloxacin-intermediate and -resistant strains) of 0.06 µg/mL (≈ 0.123 µM), an MIC50 (Neisseria gonorrhoeae; penicillin-intermediate strains) of 0.06 µg/mL (≈ 0.123 µM) and an MIC50 (Neisseria gonorrhoeae; penicillin-resistant strains) of 0.06 µg/mL (≈ 0.123 µM). The “isolates at ≦0.06 μg/mL” value (Neisseria gonorrhoeae; penicillin-resistant strains) was 85.7%, the MIC50 (Neisseria gonorrhoeae; tetracycline-intermediate strains) was 0.06 µg/mL (≈ 0.123 µM) and the MIC50 (Neisseria gonorrhoeae; tetracycline-resistant strains) was 0.06 µg/mL (≈ 0.123 µM). For the same molecule, the “isolates at 0.06 μg/mL” value (Neisseria gonorrhoeae; tetracycline-resistant strains) was 66.7%, the efficacy in vivo ([9]; S. pyogenes ATC12384 in neutropenic mice) was “dose-dependent efficacy” and the “AUC value for 1-log reduction” value [9, 11] was 76 μg·h/mL. The “AUC value for 2-log reduction” value [9, 11] was 95 μg·h/mL, the “AUC value for stasis” value [9, 11] was 60 µg·h/mL and the “AUC/MIC (free), EC50 ± SEM (% CV)” value ([9]; S. pyogenes neutropenic dose response) was 151 ± 7 (5%).
